Where a name gives a salt, the structure may show the parent alone.

The target of one experiment is T1, 5-HT3 (Homo sapiens, UniProt P46098).
T1 sequence (P46098 24-478): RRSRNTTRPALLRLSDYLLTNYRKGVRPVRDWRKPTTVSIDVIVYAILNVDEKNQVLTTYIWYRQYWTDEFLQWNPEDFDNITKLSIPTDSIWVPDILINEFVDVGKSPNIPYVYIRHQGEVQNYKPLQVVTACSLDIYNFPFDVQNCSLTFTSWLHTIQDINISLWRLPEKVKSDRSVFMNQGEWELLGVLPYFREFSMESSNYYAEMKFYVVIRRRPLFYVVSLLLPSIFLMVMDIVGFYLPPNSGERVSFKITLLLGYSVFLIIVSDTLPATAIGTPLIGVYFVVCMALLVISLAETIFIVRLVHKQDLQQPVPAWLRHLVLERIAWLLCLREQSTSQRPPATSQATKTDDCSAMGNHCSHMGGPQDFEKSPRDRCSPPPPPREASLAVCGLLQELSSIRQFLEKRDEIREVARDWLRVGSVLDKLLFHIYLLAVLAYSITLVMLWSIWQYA
The experiment is described as follows: Compound affinity for the human 5-HT3 receptor (Assay B), SPA radioligand binding with [9-methyl-3H]BRL-43694.
Conditions: not given
Also noted: purchased Perkin Elmer. As to the method:
Compound Affinity for the human 5-HT3 Receptor (Assay B)
The relative affinity of the various compounds for the human 5-HT3 receptor was measured in a radioligand binding assay, using a scintillation proximity assay (SPA) format. Test compounds were dissolved to 10 mM in 100% DMSO, then serially diluted at 10× assay concentrations in 100% DMSO in 96-well polypropylene plates and further diluted to 4× assay concentrations with the assay buffer. […] Binding reactions were set up in wells of PicoPlates-96 (Perkin Elmer) by adding consecutively 50 μL of each competing compound or buffer, SPA beads, the radioligand and 5-HT3 receptor membranes. After 60-min incubation at room temperature on a Nutator mixer, plates were centrifuged for 15 min at 1,500 rpm, followed by incubation in the dark for 30 min. Radioactivity was counted in the TopCount microplate counter (Perkin Elmer) for 5 min. […] Specific binding was determined by subtracting nonspecific binding from total binding. All experiments were performed in duplicate using ten concentrations of a competing ligand, with ondansetron included as a control in every run. IC50 values were determined from specific binding data using XLfit4.1 curve fitting software from IDBS Ltd. Ki values were then calculated from the Cheng-Prusoff equation.
As a reminder, the Ki is the equilibrium dissociation constant of an inhibitor or competing ligand from its target. On to `CN1C[C@H]2C[C@H](NC(=O)c3cccc4oc(Nc5ccccc5)nc34)C[C@@H](C1)N2C` [Example 52, Exo-N-(3,9-Dimethyl-3,9-diazabicyclo[3.3.1]nonan-7-yl)-2-(phenylamino)benzoxazole-4-carboxamide Hydrochloride], for which the affinity corresponds to a Ki of 27.6 nM.

Still in this experiment, the particulars now being: Assay B (method B unless otherwise annotated); read-out: 5-HT3 Ki.
Consider `CN1[C@@H]2CCC[C@H]1C[C@@H](NC(=O)c1cccc3oc(Nc4ccncc4)nc13)C2` [Example 27, Endo-N-(9-Methyl-9-azabicyclo[3.3.1]non-3-yl)-2-(pyridine-4-ylamino)benzoxazole-4-carboxamide Dihydrochloride], for which the Ki turned out to be 4.5 nM.
On the same count and under the same terms, as for `O=C(N[C@@H]1CN2CCC1CC2)c1cccc2oc(Nc3ccncc3)nc12` [Example 28, (S)—N-(quinuclidine-8-yl)-2-(pyridin-4-ylamino)benzoxazole-4-carboxamide Dihydrochloride], the figure is 5.3 nM; as for `CN1[C@@H]2CCC[C@H]1C[C@@H](NC(=O)c1cccc3oc(N4CCNc5ccccc54)nc13)C2` [Example 29, Endo-N-(9-Methyl-9-azabicyclo[3.3.1]non-3-yl)-2-(3,4-dihydroquinoxaline-1(2H)-yl)benzoxazole-4-carboxamide Dihydrochloride], 3.6 nM.
Turning to `CN(C)c1nc2c(C(=O)N[C@H]3C[C@H]4COC[C@@H](C3)N4C)cccc2o1` [Example 30, Endo-N-(9-methyl-3-oxa-9-azabicyclo[3.3.1]non-7-yl)-2-(dimethylamino)benzoxazole-4-carboxamide Hydrochloride], the inhibition constant (Ki) turned out to be 79 nM.
For the molecule `CN(C)CCN(C)c1nc2c(C(=O)N[C@H]3C[C@H]4CCC[C@@H](C3)N4C)cccc2o1` [Example 31, Endo-N-(9-methyl-9-azabicyclo[3.3.1]nonan-3-yl)-2-((2-(dimethylamino)ethyl)(methyl)amino)benzoxazole-4-carboxamide hydrochloride], the inhibition constant Ki came out at 107 nM.
Same read-out and setting: then `CN(C)CCNc1nc2c(C(=O)N[C@H]3C[C@H]4CCC[C@@H](C3)N4C)cccc2o1` [Example 32, Endo-N-(9-Methyl-9-azabicyclo[3.3.1]nonan-3-yl)-2-(2-(dimethylamino)ethylamino)benzoxazole-4-carboxamide Trihydrochloride], with 234 nM.
Still for that read-out and setting: then `CN1[C@@H]2CCC[C@H]1C[C@@H](NC(=O)c1cccc3oc(NCCN4CCOCC4)nc13)C2` [Example 33, Endo-N-(9-Methyl-9-azabicyclo[3.3.1]nonan-3-yl)-2-(2-morpholinoethylamino)benzoxazole-4-carboxamide Trihydrochloride], with 168 nM.
On the same count and under the same terms, as for `CNc1nc2c(C(=O)N[C@H]3C[C@H]4CCC[C@@H](C3)N4C)cccc2o1` [Example 34, Endo-N-(9-Methyl-9-azabicyclo[3.3.1]non-3-yl)-2-(methylamino)benzoxazole-4-carboxamide Hydrochloride], the figure is 5.3 nM; as for `CN1[C@@H]2CCC[C@H]1C[C@@H](NC(=O)c1cccc3oc(N)nc13)C2` [Example 35, Endo-N-(9-Methyl-9-azabicyclo[3.3.1]non-3-yl)-2-aminobenzoxazole-4-carboxamide Hydrochloride], 9.1 nM; as for `CC[C@H]1COCCN1c1nc2c(C(=O)NC3CC4CCCC(C3)N4C)cccc2o1` (stereo partly drawn) [Example 36, Endo-N-(9-Methyl-9-azabicyclo[3.3.1]nonan-3-yl)-2-((S)-3-ethylmorpholine)benzoxazole-4-carboxamide Hydrochloride], 4.7 nM.
On to `CN1C2CCCC1CC(NC(=O)c1cccc3oc(NC4CC5CCCC(C4)N5C)nc13)C2` (stereo not drawn) [Example 37, Endo-N-(9-Methyl-9-azabicyclo[3.3.1]nonan-3-yl)-2-(9-Methyl-9-azabicyclo[3.3.1]non-3-ylamino)benzoxazole-4-carboxamide Trihydrochloride], for which the inhibition constant Ki amounted to 243 nM.
On the same count and under the same terms, as for `COCCNc1nc2c(C(=O)N[C@H]3C[C@H]4CCC[C@@H](C3)N4C)cccc2o1` [Example 38, Endo-N-(9-Methyl-9-azabicyclo[3.3.1]nonan-3-yl)-2-(2-methoxyethylamino)benzoxazole-4-carboxamide Hydrochloride], the figure is 7.5 nM; as for `COCCCNc1nc2c(C(=O)NC3CC4CCCC(C3)N4C)cccc2o1` (stereo not drawn) [Example 39, Endo-N-(9-Methyl-9-azabicyclo[3.3.1]nonan-3-yl)-2-(3-methoxypropylamino)benzoxazole-4-carboxamide Hydrochloride], 13.2 nM.
Same read-out and setting: then `CN1[C@@H]2CCC[C@H]1C[C@@H](NC(=O)c1cccc3oc(NCCCO)nc13)C2` [Example 40, Endo-N-(9-Methyl-9-azabicyclo[3.3.1]nonan-3-yl)-2-(3-hydroxypropylamino)benzoxazole-4-carboxamide Hydrochloride], with 7.8 nM.
Still for that read-out and setting: as for `C[C@H]1CNCCN1c1nc2c(C(=O)N[C@H]3C[C@H]4CCC[C@@H](C3)N4C)cccc2o1` [Example 41a, Endo-N-(9-Methyl-9-azabicyclo[3.3.1]nonan-3-yl)-2-[(S)-2-methylpiperazin-1-yl]benzoxazole-4-carboxamide Hydrochloride], the figure is 14.2 nM; as for `C[C@@H]1CNCCN1c1nc2c(C(=O)N[C@H]3C[C@H]4CCC[C@@H](C3)N4C)cccc2o1` [Example 41b, Endo-N-(9-Methyl-9-azabicyclo[3.3.1]nonan-3-yl)-2-[(R)-2-methylpiperazin-1-yl]benzoxazole-4-carboxamide Hydrochloride], 125 nM; as for `CN1[C@@H]2CCC[C@H]1C[C@@H](NC(=O)c1cccc3oc(N4CCN(c5ncccn5)CC4)nc13)C2` [Example 42, Endo-N-(9-Methyl-9-azabicyclo[3.3.1]nonan-3-yl)-2-(4-(pyrimidin-2-yl)piperazin-1-yl)benzoxazole-4-carboxamide Hydrochloride], 11 nM.
`CN1CC2CC(NC(=O)c3cccc4oc(N5CCOCC5)nc34)CC(C1)N2C` (stereo not drawn) [Example 43, Exo-N-(3,9-Dimethyl-3,9-diazabicyclo[3.3.1]nonan-7-yl)-2-morpholinobenzoxazole-4-carboxamide Hydrochloride]: the inhibition constant (Ki) turned out to be 480 nM.
Same read-out and setting: then `CN1[C@@H]2COC[C@H]1C[C@@H](NC(=O)c1cccc3oc(N4CCOCC4)nc13)C2` [Example 44, Endo-N-(9-Methyl-3-oxa-9-azabicyclo[3.3.1]nonan-7-yl)-2-morpholinobenzoxazole-4-carboxamide Hydrochloride], with 323 nM; and `CN1[C@@H]2COC[C@H]1C[C@@H](NC(=O)c1cccc3oc(Nc4ccccc4)nc13)C2` [Example 45, Endo-N-(9-Methyl-3-oxa-9-azabicyclo[3.3.1]nonan-7-yl)-2-(phenylamino)benzoxazole-4-carboxamide Hydrochloride], with 22.6 nM.
Same read-out and setting: as for `CN(C)C(=O)CNc1nc2c(C(=O)N[C@H]3C[C@H]4CCC[C@@H](C3)N4C)cccc2o1` [Example 47, Endo-N-(9-Methyl-9-azabicyclo[3.3.1]nonan-3-yl)-2-(2-(dimethylamino)-2-oxoethylamino)benzoxazole-4-carboxamide Dihydrochloride], the figure is 137 nM.
`CC(C)[C@H]1COCCN1c1nc2c(C(=O)NC3CC4CCCC(C3)N4C)cccc2o1` (stereo partly drawn) [Example 48, Endo-N-(9-Methyl-9-azabicyclo[3.3.1]nonan-3-yl)-2-((S)-3-isopropylmorpholino)benzoxazole-4-carboxamide Hydrochloride]: the Ki came out at 6 nM.
On the same count and under the same terms, then `CN1C[C@H]2C[C@@H](NC(=O)c3cccc4oc(Nc5ccccc5)nc34)C[C@@H](C1)N2C` [Example 51, Endo-N-(3,9-Dimethyl-3,9-diazabicyclo[3.3.1]nonan-7-yl)-2-(phenylamino)benzoxazole-4-carboxamide Hydrochloride], with 212 nM.
The same measure, in the same setting: as for `CN1[C@@H]2CCC[C@H]1C[C@@H](NC(=O)c1cccc3oc(N4CCC[C@H]4C(N)=O)nc13)C2` [Example 53, Endo-N-(9-Methyl-9-azabicyclo[3.3.1]non-3-yl)-2-((S)-2-carbamoylpyrrolidin-1-yl)benzoxazole-4-carboxamide Hydrochloride], the figure is 212 nM; as for `CN1[C@@H]2CCC[C@H]1C[C@@H](NC(=O)c1cccc3oc(N4CCn5c(nnc5C(F)(F)F)C4)nc13)C2` [Example 54, Endo-N-(9-Methyl-9-azabicyclo[3.3.1]nonan-3-yl)-2-(3-(trifluoromethyl)-5,6-dihydro-[1,2,4]triazolo[4,3-a]pyrazin-7(8H)-yl)benzoxazole-4-carboxamide Hydrochloride], 118 nM.
The same measure, in the same setting: then `CN1[C@@H]2CCC[C@H]1C[C@@H](NC(=O)c1cccc3oc(=O)[nH]c13)C2` [Example 56, Endo-N-(9-Methyl-9-azabicyclo[3.3.1]nonan-3-yl)-2-oxo-2,3-dihydrobenzoxazole-4-carboxamide Hydrochloride], with 72 nM.

For the origin of these results see patent publication US7863271B2, “2-aminobenzoxazole carboxamides as 5HT3 modulators” (Albany Molecular Research, Inc., priority 2006, dated 2011).
